From patent US11413264B2, “Carbamoyl phenylalaninol analogs and uses thereof” (Jazz Pharmaceuticals Ireland Limited, priority 2017, dated 2022)
Where a name gives a salt, the structure may show the parent alone. Read-outs that look alike come from different tables or passages of the source.

Assays:
[1] = target: T1, alpha2C adrenergic receptor (Alpha2C) (Homo sapiens, UniProt P18825); assay: Competitive radioligand binding assay, α2C (antagonist radioligand); details: compound at 10 μM
T1 construct: expressed in transfected cells; host or cells: CHO cells (membrane fractions)
T1 sequence (P18825 1-462): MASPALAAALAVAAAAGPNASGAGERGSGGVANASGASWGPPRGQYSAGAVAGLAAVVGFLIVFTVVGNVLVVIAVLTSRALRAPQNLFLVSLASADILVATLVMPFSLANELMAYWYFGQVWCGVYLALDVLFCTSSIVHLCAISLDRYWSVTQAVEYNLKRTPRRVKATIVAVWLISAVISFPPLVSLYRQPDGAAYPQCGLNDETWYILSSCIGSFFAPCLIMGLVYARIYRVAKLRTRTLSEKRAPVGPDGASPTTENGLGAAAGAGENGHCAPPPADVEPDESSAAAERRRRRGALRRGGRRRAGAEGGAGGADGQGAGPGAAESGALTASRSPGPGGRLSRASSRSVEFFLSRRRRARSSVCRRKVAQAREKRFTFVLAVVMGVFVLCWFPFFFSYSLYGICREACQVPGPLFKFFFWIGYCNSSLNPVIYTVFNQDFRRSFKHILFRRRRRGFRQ
Procedure: (§1) Compounds of the invention were tested for pharmacological activity in comparison to APC. Eight binding assays were carried out to provide a binding profile for each compound, including binding to dopamine transporter (DAT), norepinephrine transporter (NET), serotonin (5-HT) transporter (SERT), alpha2A adrenergic receptor (Alpha2A), alpha2C adrenergic receptor (Alpha2C), D2S dopamine receptor (D2S), D2L dopamine receptor (D2L), and vesicular monoamine transporter (VMAT2). Competitive binding assays using a radiolabeled ligand were carried out with each compound at 10 μM. The radioligand for each target was as follows: DAT—BTCP, NET—nisoxetine, SERT—imipramine, Alpha2A—yohimbine, Alpha2C—yohimbine, D2S—7-OH-DPAT, D2L—methylspiperone, VMAT2—tetrabenazine. The source of the receptors and transporters were prepared cell membrane fractions.

[2] = target: T2, dopamine transporter (DAT) (Homo sapiens, UniProt Q01959); assay: Competitive radioligand binding assay, dopamine transporter (antagonist radioligand); details: compound at 10 μM; for binding to the dopamine transporter (in words): summary
T2 construct: expressed in transfected cells; host or cells: CHO cells (membrane fractions)
Procedure: as §1

[3] = target: T3, serotonin (5-HT) transporter (SERT) (Homo sapiens, UniProt P31645); assay: Competitive radioligand binding assay, 5-HT transporter (antagonist radioligand); details: compound at 10 μM
T3 construct: expressed in transfected cells; host or cells: CHO cells (membrane fractions)
Procedure: as §1

[4] = target: T4, vesicular monoamine transporter (VMAT2) (Rattus norvegicus, UniProt Q01827); assay: Competitive radioligand binding assay, VMAT2 transporter (antagonist radioligand); details: compound at 10 μM
T4 construct: Rat brain; from tissue; host or cells: rat brain minus cerebellum, membrane fraction
Procedure: as §1

[5] = target: T5, alpha2A adrenergic receptor (Alpha2A) (Homo sapiens, UniProt P08913); assay: Competitive radioligand binding assay, α2A (antagonist radioligand); details: compound at 10 μM
T5 construct: expressed in transfected cells; host or cells: CHO cells (membrane fractions)
T5 sequence (P08913 1-465): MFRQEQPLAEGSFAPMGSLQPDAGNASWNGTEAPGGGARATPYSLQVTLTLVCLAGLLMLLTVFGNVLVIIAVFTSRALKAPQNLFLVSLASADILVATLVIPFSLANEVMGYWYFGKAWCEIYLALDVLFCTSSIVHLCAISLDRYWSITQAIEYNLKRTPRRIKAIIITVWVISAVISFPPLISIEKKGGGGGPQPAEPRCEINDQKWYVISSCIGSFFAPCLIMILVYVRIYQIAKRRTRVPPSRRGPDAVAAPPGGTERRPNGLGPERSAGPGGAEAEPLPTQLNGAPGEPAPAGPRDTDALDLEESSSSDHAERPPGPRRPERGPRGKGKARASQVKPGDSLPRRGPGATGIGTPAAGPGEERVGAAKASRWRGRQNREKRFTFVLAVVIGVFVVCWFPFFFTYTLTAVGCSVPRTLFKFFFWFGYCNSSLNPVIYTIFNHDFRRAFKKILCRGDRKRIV
Procedure: as §1

[6] = target: T6, norepinephrine transporter (NET) (Homo sapiens, UniProt P23975); assay: Competitive radioligand binding assay, norepinephrine transporter (antagonist radioligand); details: compound at 10 μM; for binding to the norepinephrine transporter (in words): summary
T6 construct: expressed in transfected cells; host or cells: CHO cells (membrane fractions)
Procedure: as §1

[7] = target: T7, D2S dopamine receptor (D2S) (Homo sapiens, UniProt P14416); assay: Competitive radioligand binding assay, D2S (agonist radioligand); details: compound at 10 μM
T7 construct: expressed in transfected cells; host or cells: HEK-293 cells (membrane fractions)
Procedure: as §1

[8] = target: T8, D2L dopamine receptor (D2L) (Homo sapiens, UniProt P14416); assay: Competitive radioligand binding assay, D2L (antagonist radioligand); details: compound at 10 μM
T8 construct: expressed in transfected cells; host or cells: HEK-293 cells (membrane fractions)
Procedure: as §1

[9] = 1st individual result, read-out: % inhibition of control specific binding, 1st
[10] = 2nd individual result, read-out: % inhibition of control specific binding, 2nd
[11] = mean, read-out: % inhibition of control specific binding, Mean
[12] = Dopamine transporter, 1st individual result, read-out: % inhibition of control specific binding, 1st
[13] = Dopamine transporter, 2nd individual result, read-out: % inhibition of control specific binding, 2nd
[14] = Dopamine transporter, mean, read-out: % inhibition of control specific binding, Mean
[15] = [3H]BTCP 4 nM, human recombinant (CHO cells), read-out: % Inhibition of Binding at Each Transporter or Receptor Target, DAT
[16] = 5-HT transporter, 1st individual result, read-out: % inhibition of control specific binding, 1st
[17] = 5-HT transporter, 2nd individual result, read-out: % inhibition of control specific binding, 2nd
[18] = 5-HT transporter, mean, read-out: % inhibition of control specific binding, Mean
[19] = [3H]imipramine 2 nM, human recombinant (CHO cells), read-out: % Inhibition of Binding at Each Transporter or Receptor Target, SERT
[20] = VMAT2 transporter, single value, read-out: % inhibition of control specific binding, 1st
[21] = [3H]dihydrotetrabenazine 10 nM, rat brain (minus cerebellum), read-out: % Inhibition of Binding at Each Transporter or Receptor Target, VMAT2
[22] = Norepinephrine transporter, 1st individual result, read-out: % inhibition of control specific binding, 1st
[23] = Norepinephrine transporter, 2nd individual result, read-out: % inhibition of control specific binding, 2nd
[24] = Norepinephrine transporter, mean, read-out: % inhibition of control specific binding, Mean
[25] = [3H]nisoxetine 1 nM, human recombinant (CHO cells), read-out: % Inhibition of Binding at Each Transporter or Receptor Target, NET
[26] = D2S, 1st individual result, read-out: % inhibition of control specific binding, 1st
[27] = D2S, 2nd individual result, read-out: % inhibition of control specific binding, 2nd
[28] = D2S, mean, read-out: % inhibition of control specific binding, Mean
[29] = [3H]7-OH-DPAT 1 nM, human recombinant (HEK-293 cells), read-out: % Inhibition of Binding at Each Transporter or Receptor Target, D2S
[30] = D2L, 1st individual result, read-out: % inhibition of control specific binding, 1st
[31] = D2L, 2nd individual result, read-out: % inhibition of control specific binding, 2nd
[32] = D2L, mean, read-out: % inhibition of control specific binding, Mean
[33] = [3H]methyl-spiperone 0.3 nM, human recombinant (HEK-293 cells), read-out: % Inhibition of Binding at Each Transporter or Receptor Target, D2L

T2 sequence (Q01959 whole entry): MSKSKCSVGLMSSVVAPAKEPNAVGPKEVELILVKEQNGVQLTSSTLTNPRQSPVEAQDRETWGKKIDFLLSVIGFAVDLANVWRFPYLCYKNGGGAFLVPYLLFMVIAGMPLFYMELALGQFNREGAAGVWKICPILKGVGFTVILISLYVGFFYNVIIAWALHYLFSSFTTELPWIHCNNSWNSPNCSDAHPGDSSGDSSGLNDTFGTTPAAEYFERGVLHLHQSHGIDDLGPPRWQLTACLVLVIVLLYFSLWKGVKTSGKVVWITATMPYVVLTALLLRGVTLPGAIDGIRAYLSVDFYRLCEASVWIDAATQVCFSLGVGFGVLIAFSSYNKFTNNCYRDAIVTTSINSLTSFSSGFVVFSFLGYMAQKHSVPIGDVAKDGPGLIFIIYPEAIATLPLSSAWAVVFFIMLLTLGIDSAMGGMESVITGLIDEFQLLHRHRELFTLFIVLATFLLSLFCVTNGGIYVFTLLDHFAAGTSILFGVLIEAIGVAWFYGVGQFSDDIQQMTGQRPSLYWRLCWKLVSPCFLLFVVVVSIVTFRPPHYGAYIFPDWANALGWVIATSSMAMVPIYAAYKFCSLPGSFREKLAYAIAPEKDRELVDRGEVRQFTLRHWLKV
T3 sequence (P31645 whole entry): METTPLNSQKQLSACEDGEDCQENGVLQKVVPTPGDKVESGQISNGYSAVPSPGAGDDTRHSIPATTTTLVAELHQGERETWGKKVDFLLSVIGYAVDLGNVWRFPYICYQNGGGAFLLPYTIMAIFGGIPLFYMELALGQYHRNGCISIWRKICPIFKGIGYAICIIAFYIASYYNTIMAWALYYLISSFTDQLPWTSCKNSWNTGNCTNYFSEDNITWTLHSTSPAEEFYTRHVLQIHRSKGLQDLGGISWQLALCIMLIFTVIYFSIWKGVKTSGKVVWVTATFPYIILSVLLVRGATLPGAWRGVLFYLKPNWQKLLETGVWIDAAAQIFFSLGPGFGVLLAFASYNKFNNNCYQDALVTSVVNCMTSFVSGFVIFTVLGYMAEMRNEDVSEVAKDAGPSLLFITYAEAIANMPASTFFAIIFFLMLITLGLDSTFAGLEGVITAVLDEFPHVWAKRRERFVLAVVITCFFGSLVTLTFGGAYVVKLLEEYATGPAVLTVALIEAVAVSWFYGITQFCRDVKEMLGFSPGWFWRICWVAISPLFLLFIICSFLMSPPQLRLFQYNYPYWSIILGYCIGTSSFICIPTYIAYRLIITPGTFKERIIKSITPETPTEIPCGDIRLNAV
T7 sequence (P14416 1-414 isoform P14416-2): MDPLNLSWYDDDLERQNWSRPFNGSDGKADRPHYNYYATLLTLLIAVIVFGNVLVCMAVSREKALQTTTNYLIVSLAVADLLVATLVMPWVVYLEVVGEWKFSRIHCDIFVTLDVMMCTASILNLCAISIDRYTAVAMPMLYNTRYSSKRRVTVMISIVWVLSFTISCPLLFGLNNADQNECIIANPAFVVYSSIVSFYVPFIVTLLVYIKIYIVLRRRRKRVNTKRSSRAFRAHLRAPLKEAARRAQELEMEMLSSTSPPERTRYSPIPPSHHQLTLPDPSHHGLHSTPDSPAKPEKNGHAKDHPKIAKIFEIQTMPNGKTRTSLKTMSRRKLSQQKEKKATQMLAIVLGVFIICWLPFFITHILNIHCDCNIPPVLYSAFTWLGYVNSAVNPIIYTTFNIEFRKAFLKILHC
T4 sequence (Q01827 whole entry): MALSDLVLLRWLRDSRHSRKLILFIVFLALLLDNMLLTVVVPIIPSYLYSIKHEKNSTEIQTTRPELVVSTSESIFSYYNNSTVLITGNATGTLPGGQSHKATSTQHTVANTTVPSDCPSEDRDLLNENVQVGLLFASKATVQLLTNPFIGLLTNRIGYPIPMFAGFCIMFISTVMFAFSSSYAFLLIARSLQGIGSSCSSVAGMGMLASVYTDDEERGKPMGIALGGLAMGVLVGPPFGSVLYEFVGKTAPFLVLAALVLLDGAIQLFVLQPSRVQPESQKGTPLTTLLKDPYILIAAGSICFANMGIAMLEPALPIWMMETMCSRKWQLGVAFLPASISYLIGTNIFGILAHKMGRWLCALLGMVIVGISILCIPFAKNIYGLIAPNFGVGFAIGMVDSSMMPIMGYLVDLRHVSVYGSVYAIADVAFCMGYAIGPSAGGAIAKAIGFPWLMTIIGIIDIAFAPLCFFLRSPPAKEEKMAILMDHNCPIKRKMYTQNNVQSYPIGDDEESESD
T6 sequence (P23975 whole entry): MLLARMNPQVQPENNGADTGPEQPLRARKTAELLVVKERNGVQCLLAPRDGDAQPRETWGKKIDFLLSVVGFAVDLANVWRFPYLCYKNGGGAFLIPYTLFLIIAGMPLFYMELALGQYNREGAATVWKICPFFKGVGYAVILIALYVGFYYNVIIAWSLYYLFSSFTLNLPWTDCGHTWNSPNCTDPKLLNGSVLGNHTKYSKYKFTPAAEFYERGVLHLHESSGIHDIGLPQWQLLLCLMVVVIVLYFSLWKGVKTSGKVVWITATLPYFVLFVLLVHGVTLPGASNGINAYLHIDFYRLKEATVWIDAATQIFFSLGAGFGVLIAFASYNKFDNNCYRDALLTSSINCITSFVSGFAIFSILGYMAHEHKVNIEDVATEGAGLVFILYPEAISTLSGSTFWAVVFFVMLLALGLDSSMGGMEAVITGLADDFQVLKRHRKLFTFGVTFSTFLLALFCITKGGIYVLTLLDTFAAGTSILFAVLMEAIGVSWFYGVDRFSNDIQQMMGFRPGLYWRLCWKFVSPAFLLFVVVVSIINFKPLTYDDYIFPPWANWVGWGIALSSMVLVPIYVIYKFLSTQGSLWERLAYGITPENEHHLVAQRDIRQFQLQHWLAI
T8 sequence (P14416 whole entry): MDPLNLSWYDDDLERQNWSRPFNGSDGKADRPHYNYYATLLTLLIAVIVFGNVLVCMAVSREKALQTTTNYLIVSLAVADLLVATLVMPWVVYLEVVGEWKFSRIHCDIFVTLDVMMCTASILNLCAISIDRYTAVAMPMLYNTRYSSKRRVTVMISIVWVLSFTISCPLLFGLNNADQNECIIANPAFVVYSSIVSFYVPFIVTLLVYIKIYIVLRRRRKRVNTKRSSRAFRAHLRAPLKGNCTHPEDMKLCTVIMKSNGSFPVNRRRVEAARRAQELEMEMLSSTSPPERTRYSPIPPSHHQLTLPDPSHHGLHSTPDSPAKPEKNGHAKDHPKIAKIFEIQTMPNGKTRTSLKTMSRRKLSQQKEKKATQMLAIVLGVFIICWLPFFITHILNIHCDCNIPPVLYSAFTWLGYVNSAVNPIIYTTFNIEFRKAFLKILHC

Row | SMILES | inhibition at 10 µM [1, 9] [%] | inhibition at 10 µM [1, 10] [%] | inhibition at 10 µM [1, 11] [%] | inhibition at 10 µM [2, 12] [%] | inhibition at 10 µM [2, 13] [%] | inhibition at 10 µM [2, 14] [%] | inhibition at 10 µM [2, 15] [%] | binding to the dopamine transporter (in words) [2] | inhibition at 10 µM [3, 16] [%] | inhibition at 10 µM [3, 17] [%] | inhibition at 10 µM [3, 18] [%] | inhibition at 10 µM [3, 19] [%] | inhibition at 10 µM [4, 20] [%] | inhibition at 10 µM [4, 21] [%] | inhibition at 10 µM [5, 9] [%] | inhibition at 10 µM [5, 10] [%] | inhibition at 10 µM [5, 11] [%] | inhibition at 10 µM [6, 22] [%] | inhibition at 10 µM [6, 23] [%] | inhibition at 10 µM [6, 24] [%] | also measured
1 | NC(=S)OC[C@H](N)Cc1ccccc1 [Compound 8, (R)—O-(2-Amino-3-phenylpropyl) carbamothioate dihydrochloride] | 50.6 | 47 | 48.8 | 67.9 | 95.4 | 81.6 | 81.6 | substantial | -1.9 | -2.4 | -2.1 | -2.1 | 6 | 6 | 60 | 61.3 | 60.6 | 29.5 | 46.1 | 37.8 | inhibition at 10 µM [6, 25]: 37.8%; binding to the norepinephrine transporter (in words) [6]: substantial binding; inhibition at 10 µM [7, 26]: 33.5%; inhibition at 10 µM [7, 27]: 21.4%; inhibition at 10 µM [7, 28]: 27.4%; inhibition at 10 µM [7, 29]: 27.4%; inhibition at 10 µM [8, 30]: -0.5%; inhibition at 10 µM [8, 31]: 2.7%; inhibition at 10 µM [8, 32]: 1.1%; inhibition at 10 µM [8, 33]: 1.1%
2 | N[C@@H](COS(N)(=O)=O)Cc1ccccc1 [Compound 9, (R)-2-Amino-3-phenylpropyl sulfamate hydrochloride] | 65.8 | 60.9 | 63.4 | 26.4 | 44 | 35.2 | 35.2 | substantial | -1.7 | -3.7 | -2.7 | -2.7 | 16 | 16 | 65.7 | 70.8 | 68.3 | -3.7 | 14 | 5.1 | inhibition at 10 µM [6, 25]: 5.1%; binding to the norepinephrine transporter (in words) [6]: substantial binding; inhibition at 10 µM [7, 26]: 45.3%; inhibition at 10 µM [7, 27]: 33.7%; inhibition at 10 µM [7, 28]: 39.5%; inhibition at 10 µM [7, 29]: 39.5%; inhibition at 10 µM [8, 30]: -2.2%; inhibition at 10 µM [8, 31]: -6.8%; inhibition at 10 µM [8, 32]: -4.5%; inhibition at 10 µM [8, 33]: -4.5%
3 | NC(=O)SC[C@H](N)Cc1ccccc1 [Compound 10, (R)—S-(2-Amino-3-phenylpropyl) carbamothioate hydrochloride] | 89.3 | 92.4 | 90.9 | 85.3 | 87.3 | 86.3 | 86.3 | substantial | 21.7 | 22 | 21.9 | 21.9 | 5 | 5 | 64.4 | 46.1 | 55.3 | 91.7 | 91.7 | 91.7 | inhibition at 10 µM [6, 25]: 91.7%; binding to the norepinephrine transporter (in words) [6]: substantial binding; inhibition at 10 µM [7, 26]: 89.5%; inhibition at 10 µM [7, 27]: 90.5%; inhibition at 10 µM [7, 28]: 90%; inhibition at 10 µM [7, 29]: 90%; inhibition at 10 µM [8, 30]: 33.7%; inhibition at 10 µM [8, 31]: 35.6%; inhibition at 10 µM [8, 32]: 34.7%; inhibition at 10 µM [8, 33]: 34.7%
